One substance from patent US9212210B2, “Akt activity specifically inhibiting polypeptide” (Japan Science and Technology Agency, priority 2003, dated 2015) can be followed below.

One assay has as its system Recombinant Akt protein. Description: In vitro Akt kinase assay with GSK as substrate. The class given is biochemical. Conditions: 200 μM peptide, reacted 2 hours, phosphorylation 4 minutes at 30° C., western blotting. The procedure:
With the use of the GSK as substrate Akt kinase assay was performed, and inhibition test for Akt activation with 10/24 peptide was performed.
In vitro Akt kinase assay was performed by using kit (Cell Signaling, #9840). Recombinant Akt protein extracted from mammalian cells was mixed with 200 μM concentrations of peptide, and reacted for 2 hours. Phosphorylation was performed for 4 minutes at 30° C. After analyzing the reaction mixture on SDS gels, GSK phosphorylation was determined by western blotting.

Assay [1] concerns Akt in mouse QrSP-11 fibrosarcoma cells. Description: Inhibition of Akt phosphorylation activation in PDGF-stimulated QrSP-11 cells (western blotting). Type of assay: cell-based. Particulars: 50 mM peptide for 16 hours, PDGF stimulation. As to the method:
Inhibition effect on Akt activation of AKT phosphorylation (serine 473 residue, threonine 308 residue) of 10/24 peptide and control peptide in mouse QrSP-11 fibrosarcoma cells were examined.
QrSP-11 cells were mixed with 50 mM concentrations of peptide for 16 hours. Then the mixture was stimulated with PDGF (PDGF-AB, Sigma, 3226). The cells were lysed in the presence of phosphatase inhibitor, analyzed on SDS gels, and western blotting was performed by ECL (Amersham) with the use of various antibodies (Cell Signaling; anti-Akt #9272, anti-pThr 308 #9275L, and anti-pSer 473 #9271L). As shown in the figure, in the 10/24 peptide treated cells, phosphorylations of both serine 473 and threonine 308 were inhibited as shown at the right in the figure. That is, phosphorylation inhibition caused by 10/24 peptide was indicated by diluting the black bands at the right compared to the second and forth rows from the left in the figure.

For assay [2], the system named is Mouse QrSP-11 fibrosarcoma cells transplanted to C57BL/6 mouse. Description: In vivo anti-tumor effect on transplanted tumor cells. Conditions: injected directly into tumor, 2 μM 3 times a week per mouse, versus control peptide. As to the method: In vivo anti-tumor effect by 10/24 peptide with the use of the transplanted tumor cells was examined.
Mouse QrSP-11 fibrosarcoma cells was transplanted to abdominal wall of C57BL/6 mouse, and examined the inhibition ? effect on tumor growth by peptide. 10/24 peptide or control peptide was injected directly into tumor cells (2 μM was administered 3 times a week for each mouse, shown by arrows in the figure), the tumor diameters were measured and the volumes were calculated.

A further assay concerns the target Akt2 (Homo sapiens, UniProt P31751). The assay is described as follows: Co-immunoprecipitation binding test with Akt subtype Akt2. The arrangement: expressed in transfected cells; host or cells: 293 cells (ATCC), calcium phosphate transfection, pCMV6 vector. Particulars: 293 cell lysate, peptide at 400 μM, anti Flag M2 immunoprecipitation, western blotting. As to the method: Binding test between 10/24 peptide and Akt subtype molecule: Akt1, Akt2, or Akt3, was performed by using co-immunoprecipitation assay.
The cell lysate overexpressed Akt kinase in 293 cells (ATCC) i.e., Akt1, Akt2 or Akt3 in pCMV6 was expressed in 293 cells (ATCC) by using calcium phosphate method, and the overexpressed cells were harvested, lysed, and pre-treated with Protein G/A agarose mixture (50% v/v, ProG/A, Pharmacia). Akt or a control peptide (βC) was added to the cell lysate at 400 μM, inoculated with ProG/A for 3 hours at 4° C., and was added anti Flag M2 antibody (Sigma). The resultant immune precipitant was washed, and then were identified the binding to Akt kinase by western blotting (anti-HA antibody, 3F10, Boehringer Mannheim). As shown in the figure, the 10/24 peptide bound to any of the three subtypes of molecules, Akt1, Akt2, and Akt3.
A general note: Immunoblotting shows a protein as a band on a membrane.

Akt2, sequence (P31751 whole entry): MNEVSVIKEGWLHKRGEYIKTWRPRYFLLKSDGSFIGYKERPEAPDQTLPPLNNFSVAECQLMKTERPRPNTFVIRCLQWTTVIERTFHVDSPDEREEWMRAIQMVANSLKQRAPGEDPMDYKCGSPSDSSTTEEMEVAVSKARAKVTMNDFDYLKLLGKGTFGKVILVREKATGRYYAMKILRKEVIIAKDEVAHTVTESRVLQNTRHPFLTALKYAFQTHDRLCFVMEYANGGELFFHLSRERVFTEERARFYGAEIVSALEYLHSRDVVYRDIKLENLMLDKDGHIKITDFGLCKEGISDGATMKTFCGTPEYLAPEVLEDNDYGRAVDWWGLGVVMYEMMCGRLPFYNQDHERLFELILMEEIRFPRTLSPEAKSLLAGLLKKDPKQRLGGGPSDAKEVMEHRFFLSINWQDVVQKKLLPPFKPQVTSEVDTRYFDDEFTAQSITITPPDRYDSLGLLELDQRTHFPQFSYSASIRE

In the case of “NH2-AVTDHPDRLWAWEKF-COOH (H-AVTDHPDRLWAWEKF-OH; listed as Homo sapiens) [10/24 peptide, amino acid residue 10-24 of human TCL1]”, in the assay with Recombinant Akt protein, the “phosphorylation potency of Akt for GSK peptide (Akt kinase activity)” value is listed as “effectively inhibited”. Further, in assay [1], the “phosphorylation of Akt serine 473” value is given as “inhibited” and the “phosphorylation of Akt threonine 308” value is reported as “inhibited”. Moreover, the “tumor growth (tumor volume)” value in assay [2] is “tumor growth was effectively inhibited”. The “binding to Akt2” value with Akt2 is on record as “bound”.
